Measured values as given in PMC11802874, “The hypolipidemic effect of MI-883, the combined CAR agonist/ PXR antagonist, in diet-induced hypercholesterolemia model” (Nature Communications, 2025).
Where “and” joins values, the source holds several entries; their conditions need not be identical. Equal entries are not always repeated.

Tests used:
PXR/NCOA2 = biological target: T1, PXR/NCOA2 (Homo sapiens, UniProt O75469); test: Mammalian two-hybrid PXR/coactivator NCOA2 recruitment, HepG2; assay type: cell-based; set-up: key: firefly/Metridia luciferase activity ratio (normalized)
T1 construct: PXR-LBD (residues 108–434); expressed in transfected cells; host or cells: HepG2
T1 sequence (O75469 108-434): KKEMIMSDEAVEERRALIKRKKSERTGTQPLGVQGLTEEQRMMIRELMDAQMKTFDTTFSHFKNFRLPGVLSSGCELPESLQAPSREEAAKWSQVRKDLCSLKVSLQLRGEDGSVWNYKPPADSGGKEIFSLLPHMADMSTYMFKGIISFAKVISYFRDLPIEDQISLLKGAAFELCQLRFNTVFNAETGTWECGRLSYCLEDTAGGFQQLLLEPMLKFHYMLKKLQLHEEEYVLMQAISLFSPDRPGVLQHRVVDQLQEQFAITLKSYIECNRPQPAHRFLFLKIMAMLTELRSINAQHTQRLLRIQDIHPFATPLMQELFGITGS
Experimental: The GAL4-dependent pGL4-G5, harboring a pentamer of GAL4 binding sites in front of the E1b promoter was described before.
Transient batch transfection of HepG2 cells was done as described above. […] All transfections included 0.01 µg pMetLuc2control per well for normalization of firefly luciferase reporter activities. After overnight incubation with the transfection mixtures, cells were treated with chemicals in a volume of 100 µl of cell culture medium. […] Firefly luciferase activity was measured in 10 µl of cell lysates, and Metridia luciferase activity was analyzed in 10 µl of medium supernatant, both as described before. Results were normalized by dividing firefly luciferase activity by Metridia luciferase activity measured from the same well. Measurements of samples were repeated several times (n ≥ 3).

[1] = tested on: humanized PXR-CAR-CYP3A4/3A7 mice fed HCD; test: High-cholesterol diet (HCD) study: weights, plasma biochemistry; assay type: in vivo, mouse; conditions: for ALP / ALT / AST / Albumin / Bilirubin / Fe / UA / Urea / LDH / BW (Fig. 4g) / Chol (Fig. 4h) / Glu (Fig. 4h) / HDL (Fig. 4h) / LDL (Fig. 4h) / LW (Fig. 4g) / LW/BW (Fig. 4g) / TG (Fig. 4h): individual animals
Experimental: For experiments with a high-cholesterol diet (HCD), mice (18–26 weeks) were pretreated ad libitum for 2 weeks with diet containing 15% fat and 12.5 g/kg of cholesterol (E15103, ssniff, Soest, Germany) (Fig. 4f). After this period, animals were randomly assigned to two groups (control vehicle-treated and MI-883-treated animals, with 9 males and 7 females per group). Animals were dosed orally with MI-883 (5 mg/kg every other day—Monday, Wednesday, Friday, and the following Monday and Wednesday, for a total of 5 doses) or vehicle alone (5% DMSO/5% PEG300/90% corn oil) via oral gavage three times per week. The animals remained on the HCD during the treatment period. Mice were sacrificed after 5 treatments.
Mice were weighted and tissues (livers, blood, duodenum, jejunum, ileum, white fat) were removed, weighted and snap frozen in liquid nitrogen and stored at –80 °C until analysis. Blood was collected from the retro-orbital sinus of mice under isoflurane anesthesia into heparin-coated tubes (Kabe Laboratortechnik GmbH, Nümbrecht-Elsenroth, Germany) after 3 h fasting and analyzed on AU480 biochemistry analyzer (Beckman Coulter, Brea, USA). Sample preparation for bile acid and cholesterol analyses from tissues or feces is described below. One of the liver lobes was fixed in formalin, embedded in paraffin blocks, sectioned, and subjected to H&E staining. Blood was analyzed as described in Supplementary, Chapter 10.
Blood was collected from the retro-orbital sinus of mice under isoflurane anesthesia into heparin-coated tubes (Kabe Laboratortechnik GmbH, Nümbrecht-Elsenroth, Germany) after 3 hours of fasting. Blood was left for 10 minutes at room temperature, and then kept on ice until centrifugation (5,000 g at 4°C for 10 minutes). The collected plasma was stored at -80 °C until measurement. Lipoprotein levels and other plasmatic parameters were measured on an AU480 biochemistry analyzer (Beckman Coulter, Brea, USA).

[2] = tested on: humanized PXR-CAR-CYP3A4/3A7 mice, liver; test: RT-qPCR and Western blotting of liver samples (HFD study); assay type: in vivo, mouse
Experimental: RT-qPCR expression studies were performed on liver samples from eleven humanized PXR-CAR-CYP3A4/3A7 mice that were fed a high-fat diet and treated with 5 mg/kg MI-883 three times per week for four weeks. Specific TaqMan probes were used, following the protocol described in Supplementary Table S3.
Western blotting experiments have been performed in BioRad instruments with BioRad precasted gels and reagents. Antibodies are listed in Supplementary Table S4. Densitometry has been done using ChemiDoc™ MP Imaging System and software (BioRad, Hercules, USA). Data are presented as relative protein expression to control samples. For protein expression quantification, areas in histograms have been calculated and related to a reference protein.

[3] = first vehicle/MI-883 column pair
[4] = second vehicle/MI-883 column pair
[5] = FigS13, individual animals, relative to control
[6] = HFD study, Western blotting, form not given
[7] = hPXR/hCAR/hCYP3A4/7 mice, relative to control, individual animals

## NC(=O)c1cc(Cn2cc(-c3c(-c4ccc(Cl)cc4)nc4cc(F)ccn34)nn2)ccc1Cl [MI-883, 2-chloro-5-((4-(2-(4-chlorophenyl)-7-fluoroimidazo[1,2-a]pyridin-3-yl)-1H-1,2,3-triazol-1-yl)methyl)benzamide]
PXR/NCOA2; MI-883 30 μM
  PXR/TIF2 (NCOA2) two-hybrid activity, replicates: 1.15 and 1.65 and 1.3 and 1.26 and 0.52
PXR/NCOA2; single agent: RIF (10 µM), MI-883 10 μM
  PXR/TIF2 (NCOA2) two-hybrid activity, replicates: 0.75 and 0.81 and 0.95 and 0.79 and 0.57
[1]; HCD female
  ALP: 64 and 60 and 66
  ALT: 52 and 44 and 50 and 65 and 53 and 31 and 37
  AST: 97 and 85 and 59 and 60 and 100 and 48
  Albumin: 29.13 and 29.02 and 28.37 and 27.41 and 25.72 and 27.39 and 28.99
  Bilirubin: 1.92 and 2.23 and 1.15 and 0.79 and 1.09 and 1.2
  Fe: 25.95 and 24.87 and 19.99 and 29.01 and 26.38 and 27.47 and 25.24
  UA: 74.13 and 68.35 and 69.17 and 60.17 and 117.85 and 58.32 and 32.43
  Urea: 5.81 and 6.85 and 7.72 and 6.07 and 8.19 and 6.12 and 7.88
[1]; HCD male
  ALP: 60 and 53 and 64 and 50 and 42 and 46 and 69 and 45 and 43
  ALT: 335 and 154 and 210 and 103 and 48 and 36 and 40 and 194 and 61
  AST: 202 and 190 and 151 and 98 and 62 and 43 and 71 and 125 and 88
  Albumin: 25.95 and 26.89 and 26.71 and 27.24 and 27.46 and 26.93 and 28.1 and 27.95 and 27.85
  Bilirubin: 1.82 and 2.96 and 1.74 and 3.02 and 2.04 and 3.59 and 1.89 and 1.94
  Fe: 21.53 and 13.76 and 24.97 and 21.49 and 28.7 and 25.79 and 20.83 and 28.43 and 27.87
  UA: 56.8 and 93.42 and 54.01 and 55.84 and 44.35 and 31.12 and 35.14 and 37.35 and 25.57
  Urea: 7.34 and 6.71 and 7.14 and 5.73 and 5.13 and 5.97 and 6.54 and 7
[1]; HCD, p.o. 5 mg/kg, five doses every other day
  liver weight (LW) and LW/BW: not after five doses
[1]; HCD, (sex not given)
  LDH: 1.47 and 1.15 and 1.63 and 0.85 and 1.36 and 1.38 and 0.99 and 1.41 and 1.28
[1]; HCD, vehicle/MI-883 (sex not given)
  LDH: 1.12 and 1.15 and 1.19 and 1.1 and 1.09
[1]; [3]
  BW (Fig. 4g): 26.3 and 24.9 and 24.8 and 24.3 and 24 and 23.2
  Chol (Fig. 4h): 3.83 and 3.39 and 3.78 and 3.72 and 3.46 and 3.54 and 3.66
  Glu (Fig. 4h): 13.29 and 13.05 and 14.81 and 13.6 and 14.89 and 13.61 and 13.46
  HDL (Fig. 4h): 2.476 and 2.431 and 2.259 and 2.337 and 2.161 and 2.202 and 2.297
  LDL (Fig. 4h): 1.12 and 1.15 and 1.19 and 1.1 and 1.09
  LW (Fig. 4g): 1.78 and 1.62 and 1.65 and 1.52 and 1.64 and 1.48
  LW/BW (Fig. 4g): 6.77 and 6.51 and 6.65 and 6.255 and 6.833 and 6.379
  TG (Fig. 4h): 1.189 and 1.059 and 1.137 and 1.521 and 2.113 and 1.22 and 1.433
[1]; second study (HCD), at the level of statistical significance
  triglyceride levels in females: some increase
[1]; [4]
  BW (Fig. 4g): 30 and 29.4 and 30.6 and 30.9 and 33.4 and 29.7 and 26.5 and 28.4 and 26.8
  Chol (Fig. 4h): 5.16 and 3.99 and 5.8 and 3.44 and 4.89 and 4.88 and 4.18 and 4.72
  Glu (Fig. 4h): 13.25 and 13.05 and 16.4 and 12.86 and 18.52 and 15.35 and 11.72 and 18.14 and 17.74
  HDL (Fig. 4h): 3.01 and 2.484 and 3.335 and 2.267 and 3.073 and 3.039 and 2.781 and 3.388 and 2.988
  LDL (Fig. 4h): 1.47 and 1.15 and 1.63 and 0.85 and 1.36 and 1.38 and 0.99 and 1.41 and 1.28
  LW (Fig. 4g): 1.63 and 1.97 and 2.03 and 1.53 and 2.51 and 2.11 and 1.85 and 1.32 and 1.94
  LW/BW (Fig. 4g): 5.43 and 6.7 and 6.63 and 4.95 and 7.51 and 7.1 and 6.98 and 4.65 and 7.24
  TG (Fig. 4h): 0.993 and 0.808 and 0.849 and 0.608 and 0.516 and 0.697 and 0.709 and 0.93 and 0.706
[2]; [5]
  Acaca mRNA (RT-qPCR): 0.62 and 1.24 and 0.73 and 1.27 and 0.85 and 0.6 and 0.7 and 0.51 and 0.8 and 0.28 and 0.34
  Cd36 mRNA (RT-qPCR): 0.88 and 1.19 and 0.76 and 1.31 and 0.8 and 0.72 and 1.01 and 0.19 and 1.11
  Cpt1a mRNA (RT-qPCR): 1.05 and 0.92 and 2.34 and 0.85 and 1.37 and 0.77 and 1.27 and 0.96 and 1.08 and 0.81 and 0.88
  FaSN mRNA (RT-qPCR): 0.51 and 0.56 and 0.8 and 0.98 and 0.62 and 0.37 and 0.54 and 0.38 and 0.73 and 0.14 and 0.71
  Plin2 mRNA (RT-qPCR): 0.41 and 0.63 and 0.49 and 0.9 and 0.62 and 0.85 and 0.58 and 0.57 and 1 and 0.16 and 0.74
  Pnpla3 mRNA (RT-qPCR): 1.72 and 1.4 and 0.48 and 1.37 and 0.96 and 0.84 and 0.35 and 0.25 and 1.49 and 0.03 and 1.94
  Ppara mRNA (RT-qPCR): 0.97 and 0.71 and 1.1 and 0.18 and 1.04
  Scd1 mRNA (RT-qPCR): 0.36 and 0.67 and 0.33 and 0.76 and 0.51 and 0.6 and 0.47 and 0.34 and 0.52 and 0.56
[2]; HFD study, P = 0.0036
  liver Scd1 mRNA, RT-qPCR (n = 11): significantly downregulated
[2]; HFD study, P = 0.007 and P = 0.018
  liver Fasn and Plin2 mRNA, RT-qPCR: significantly downregulated
[2]; HFD study, Western blotting
  liver Cyp7a1 and Cyp8b1 proteins: significant upregulation
  liver Insig1 prot, individual samples: 3.8 and 3.3 and 3.1 and 2.9
  liver Srebp1 120 kDa protein or mature nuclear fragments (mSrebp1): did not see any significant decrease
[2]; HFD study, Western blotting, relative to control
  liver Mrp4 prot, individual samples: 1.89 and 1.6214 and 2.1487 and 1.571
[2]; [6]
  liver Srebp1/2 protein, lower block, first control/MI-883 pair: 1.8 and 1.6 and 1.7 and 1.1
  liver Srebp1/2 protein, lower block, second control/MI-883 pair: 0.6 and 0.7 and 0.5
  liver Srebp1/2 protein, upper block, second control/MI-883 pair: 1.7 and 1.5 and 1.1 and 1.2
[2]; HFD study, effect is not significant
  liver mature nuclear mSrepb2 protein: may decrease
[2]; HFD study, relative to control
  liver Cyp7a1 mRNA, RT-qPCR, individual animals: 0.7586 and 0.4023 and 0.5977 and 0.2759 and 0.5402 and 0.954 and 0.4943 and 0.9885 and 0.5172
  liver Insig1 mRNA, RT-qPCR, individual animals: 1.68 and 2.22 and 0.72 and 0.43 and 1.13 and 1.06 and 1.18 and 2.34 and 1.52 and 1.27 and 0.68
  liver Mrp4 mRNA, RT-qPCR, individual animals: 4.091 and 6.648 and 4.182 and 4.443 and 4.045 and 2.545 and 4.341 and 10.0455 and 5.239 and 3.409
  liver Srebf1 mRNA, RT-qPCR, individual animals: 0.7619 and 0.9619 and 0.5619 and 0.6 and 1.105 and 0.7714 and 0.7143 and 0.8857 and 0.819 and 0.4571
  liver Sult2a1 mRNA, RT-qPCR, individual animals: 4.077 and 3.288 and 1.404 and 2.538 and 0.8846 and 1.615
  liver Ugt1a1 mRNA, RT-qPCR, individual animals: 1.852 and 2.477 and 1.455 and 1.284 and 1 and 1.58 and 1.148 and 2.057 and 2 and 2.17 and 0.8977
  liver Ugt2b34 mRNA, RT-qPCR, individual animals: 1.412 and 2.106 and 2.063 and 1.118 and 1.379 and 0.7926
[2]; PXR-CAR-CYP3A4/3A7 mice (Fig. 7a)
  liver murine Gadd45b mRNA and Meg3 lncRNA: statistically significant upregulation
[2]; [7]
  Bcl2 expression (Fig. 7a): 0.87 and 0.95 and 0.93 and 1.25 and 1.35 and 0.29
  Cdkn1a expression (Fig. 7a): 1.39 and 0.41 and 0.43 and 0.27 and 1.57 and 0.35
  Foxm1 expression (Fig. 7a): 2.03 and 1.26 and 1.41 and 1.28 and 1.37 and 0.42
  Gadd45b expression (Fig. 7a): 2.07 and 7.83 and 4.06 and 7.82 and 5.69 and 2.44
  Mcl1 expression (Fig. 7a): 0.58 and 1.09 and 0.6 and 1.16 and 0.84 and 0.26
  Meg3 expression (Fig. 7a): 2.24 and 7.88 and 3.05 and 3.57 and 2.39
  Mki67 expression (Fig. 7a): 1.7 and 1.18 and 1.43 and 1.11 and 1.31 and 0.71
  Pcna expression (Fig. 7a): 0.78 and 1.24 and 0.66 and 0.89 and 0.57 and 0.36
